{"source": "paper PMC9127750", "about": "“Structure-based design of CDC42 effector interaction inhibitors for the treatment of cancer” (Cell reports, 2022)", "test_system": "WM3248 melanoma cells, 486 antibodies", "test": "Reverse phase protein arrays (RPPA)", "type": "cell-based, Human", "source_text": "Pellets were snap frozen in liquid nitrogen and shipped to MD Anderson Cancer Center core RPPA facility for RPPA analysis (Table S5). Three biological replicates for each sample were generated.\nNomenclatures on the RPPA heatmaps: name_of_antibody.species_of_antibody.status_of_antibody. V - antibody validated; C - validation of antibody in progress; Q - antibody nonspecific; E – under evaluation; antibodies raised in M - mouse, G - goat, R - rabbit, or T - rat.", "key": {"[1]": {"conditions": "Norm_10: replicates 1-3 and Average, relative to 0"}}, "note": "“And” between values parts separate entries of the source, which are not always exact repeats. Equal entries are not always repeated."}
{"smiles": "CN(C)c1cccc(Nc2cc(-c3ccccc3)nc(C3CCNCC3)n2)c1", "note": "[ARN22089, N1,N1-dimethyl-N3-(6-phenyl-2-(piperidin-4-yl)pyrimidin-4-yl)benzene-1,3-diamine]", "values": [{"measurement": "p38.MAPK.R.V Average", "setting": "Norm_10, normalized to Norm_0", "result": 0.984}, {"measurement": "p38.MAPK._pT180_Y182.R.V Average", "setting": "Norm_10, normalized to Norm_0", "result": 0.822}, {"measurement": "p38.a.M.V Average", "setting": "Norm_10, normalized to Norm_0", "result": 1.035}, {"measurement": "p44.42.MAPK.R.V Average", "setting": "Norm_10, normalized to Norm_0", "result": 1.129}, {"measurement": "p70.S6K1.R.V Average", "setting": "Norm_10, normalized to Norm_0", "result": 1.024}, {"measurement": "p90RSK_pT573.R.C Average", "setting": "Norm_10, normalized to Norm_0", "result": 0.999}, {"measurement": "PREX1.R.V normalized RPPA signal", "setting": "[1]", "result": "1.017 and 0.962 and 0.972"}, {"measurement": "PTEN.R.V normalized RPPA signal", "setting": "[1]", "result": "1.166 and 0.849 and 0.856 and 0.957"}, {"measurement": "PTPN12.R.V normalized RPPA signal", "setting": "[1]", "result": "0.749 and 0.939 and 0.909"}, {"measurement": "PYGB.R.V normalized RPPA signal", "setting": "[1]", "result": "1.205 and 1.156 and 1.144"}, {"measurement": "PYGM.M.C normalized RPPA signal", "setting": "[1]", "result": "0.918 and 2.001 and 1.335"}, {"measurement": "Puma.R.C normalized RPPA signal", "setting": "[1]", "result": "1.060 and 1.017 and 1.055"}, {"measurement": "Pyk2_pY402.R.C normalized RPPA signal", "setting": "[1]", "result": "1.111 and 0.863 and 0.946"}, {"measurement": "RBM15.R.V normalized RPPA signal", "setting": "[1]", "result": "0.891 and 1.000 and 0.960 and 0.950"}, {"measurement": "RIP3.R.C normalized RPPA signal", "setting": "[1]", "result": "0.942 and 0.921 and 0.948 and 0.937"}, {"measurement": "RIP.R.C normalized RPPA signal", "setting": "[1]", "result": "0.780 and 1.118 and 1.150 and 1.016"}, {"measurement": "RPA32.R.V normalized RPPA signal", "setting": "[1]", "result": "1.060 and 1.362 and 1.197 and 1.207"}, {"measurement": "RPA32_pS4_S8.R.C normalized RPPA signal", "setting": "[1]", "result": "1.546 and 1.295 and 1.489 and 1.443"}, {"measurement": "RRM1.R.C normalized RPPA signal", "setting": "[1]", "result": "0.939 and 0.806 and 0.945 and 0.897"}, {"measurement": "RRM2.R.C normalized RPPA signal", "setting": "[1]", "result": "0.757 and 0.774 and 0.866"}, {"measurement": "RSK1.R.V normalized RPPA signal", "setting": "[1]", "result": "1.143 and 1.201 and 1.128"}, {"measurement": "RSK.R.C normalized RPPA signal", "setting": "[1]", "result": "0.838 and 1.004 and 0.972"}, {"measurement": "Rab11.R.C normalized RPPA signal", "setting": "[1]", "result": "1.030 and 0.917 and 0.953"}, {"measurement": "Rab25.R.V normalized RPPA signal", "setting": "[1]", "result": "1.035 and 0.882 and 0.858 and 0.925"}, {"measurement": "Rad17_pS645.R.V normalized RPPA signal", "setting": "[1]", "result": "0.792 and 0.966"}, {"measurement": "Rad23A.R.C normalized RPPA signal", "setting": "[1]", "result": "0.804 and 0.923 and 1.597 and 1.108"}, {"measurement": "Rad50.R.V normalized RPPA signal", "setting": "[1]", "result": "1.116 and 1.111"}, {"measurement": "Rad51.R.C normalized RPPA signal", "setting": "[1]", "result": "0.827 and 0.908 and 0.944 and 0.893"}, {"measurement": "Raptor.R.V normalized RPPA signal", "setting": "[1]", "result": "0.845 and 0.882 and 0.940 and 0.889"}, {"measurement": "Rb.M.Q normalized RPPA signal", "setting": "[1]", "result": "0.863 and 1.097 and 1.016"}, {"measurement": "Rb_pS807_S811.R.V normalized RPPA signal", "setting": "[1]", "result": "0.811 and 0.958 and 0.878"}, {"measurement": "Rheb.M.C normalized RPPA signal", "setting": "[1]", "result": "1.032 and 1.240 and 1.115"}, {"measurement": "Rictor.R.C normalized RPPA signal", "setting": "[1]", "result": "0.988 and 0.910 and 0.945 and 0.948"}, {"measurement": "Rictor_pT1135.R.V normalized RPPA signal", "setting": "[1]", "result": "0.873 and 0.950 and 0.954"}, {"measurement": "S6.M.V normalized RPPA signal", "setting": "[1]", "result": "1.085 and 0.996 and 1.017"}, {"measurement": "S6_pS235_S236.R.V normalized RPPA signal", "setting": "[1]", "result": "0.521 and 0.472 and 0.641 and 0.545"}, {"measurement": "S6_pS240_S244.R.V normalized RPPA signal", "setting": "[1]", "result": "0.582 and 0.274 and 0.654 and 0.504"}, {"measurement": "SCD.M.V normalized RPPA signal", "setting": "[1]", "result": "0.991 and 1.046"}, {"measurement": "SDHA.R.V normalized RPPA signal", "setting": "[1]", "result": "0.992 and 0.940 and 0.859 and 0.930"}, {"measurement": "SF2.R.V normalized RPPA signal", "setting": "[1]", "result": "0.895 and 1.050 and 0.922 and 0.956"}, {"measurement": "SFRP1.R.V normalized RPPA signal", "setting": "[1]", "result": "0.808 and 0.981 and 1.003 and 0.931"}, {"measurement": "SGK1.R.V normalized RPPA signal", "setting": "[1]", "result": "1.008 and 0.920 and 1.014 and 0.981"}, {"measurement": "SGK3.R.V normalized RPPA signal", "setting": "[1]", "result": "0.816 and 0.987 and 0.963 and 0.922"}, {"measurement": "SHP2.R.V normalized RPPA signal", "setting": "[1]", "result": "0.944 (2×) and 1.029 and 0.972"}, {"measurement": "SHP.2_pY542.R.C normalized RPPA signal", "setting": "[1]", "result": "1.060 and 0.917 and 0.992 and 0.990"}, {"measurement": "SIRPαR.V normalized RPPA signal", "setting": "[1]", "result": "0.835 and 1.085 and 0.937 and 0.953"}, {"measurement": "SLC1A5.R.C normalized RPPA signal", "setting": "[1]", "result": 1.027}, {"measurement": "SOD1.M.V normalized RPPA signal", "setting": "[1]", "result": "0.907 and 1.127 and 1.007 and 1.014"}, {"measurement": "SOD2.R.V normalized RPPA signal", "setting": "[1]", "result": "1.018 and 1.276 and 0.952 and 1.082"}, {"measurement": "SOX7.R.V normalized RPPA signal", "setting": "[1]", "result": "1.145 and 1.060"}, {"measurement": "STING.R.V normalized RPPA signal", "setting": "[1]", "result": "0.851 and 0.953"}, {"measurement": "Shc_pY317.R.C normalized RPPA signal", "setting": "[1]", "result": "0.714 and 5.496 and 1.397 and 2.535"}, {"measurement": "Slfn11.G.C normalized RPPA signal", "setting": "[1]", "result": "0.876 and 1.082 and 1.481 and 1.146"}, {"measurement": "Smac.M.Q normalized RPPA signal", "setting": "[1]", "result": "0.850 and 1.137 and 0.963 and 0.983"}, {"measurement": "Smad1.R.V normalized RPPA signal", "setting": "[1]", "result": "0.960 and 0.924 and 0.963"}, {"measurement": "Smad3.R.V normalized RPPA signal", "setting": "[1]", "result": "1.062 and 0.979 and 1.026"}, {"measurement": "Smad4.R.V normalized RPPA signal", "setting": "[1]", "result": "1.013 and 1.128 and 0.985"}, {"measurement": "Snail.M.Q normalized RPPA signal", "setting": "[1]", "result": "0.664 and 0.941 and 0.860 and 0.822"}, {"measurement": "Sox2.R.V normalized RPPA signal", "setting": "[1]", "result": "1.126 and 1.008 and 0.910 and 1.015"}, {"measurement": "Sox17.R.V normalized RPPA signal", "setting": "[1]", "result": "0.905 and 1.111 and 1.000 and 1.005"}, {"measurement": "Src.M.V normalized RPPA signal", "setting": "[1]", "result": "0.883 and 1.206 and 0.940 and 1.010"}, {"measurement": "Src_pY416.R.V normalized RPPA signal", "setting": "[1]", "result": "1.030 and 0.914 and 0.902"}, {"measurement": "Src_pY527.R.V normalized RPPA signal", "setting": "[1]", "result": "1.278 and 0.689 and 0.973"}, {"measurement": "Stat1_pY701.R.V normalized RPPA signal", "setting": "[1]", "result": "0.995 (2×) and 1.011 and 1.000"}, {"measurement": "Stat3.R.C normalized RPPA signal", "setting": "[1]", "result": "0.999 and 0.915 and 0.942"}, {"measurement": "Stat3_pY705.R.C normalized RPPA signal", "setting": "[1]", "result": "1.077 and 1.148 and 1.012 and 1.079"}, {"measurement": "Stat5a.R.V normalized RPPA signal", "setting": "[1]", "result": "1.155 and 0.661 and 0.766 and 0.861"}, {"measurement": "Stathmin.1.R.V normalized RPPA signal", "setting": "[1]", "result": "0.870 and 1.129 and 0.982"}, {"measurement": "Syk.M.V normalized RPPA signal", "setting": "[1]", "result": "0.771 and 0.940 and 1.123 and 0.945"}, {"measurement": "Synaptophysin.R.C normalized RPPA signal", "setting": "[1]", "result": "0.939 and 1.003 and 0.960"}, {"measurement": "TAZ.R.V normalized RPPA signal", "setting": "[1]", "result": "0.664 and 1.279 and 1.012"}, {"measurement": "TEAD.R.C normalized RPPA signal", "setting": "[1]", "result": "0.761 and 0.855 and 1.077 and 0.898"}, {"measurement": "TFAM.R.V normalized RPPA signal", "setting": "[1]", "result": "0.933 and 0.917 and 0.914 and 0.921"}, {"measurement": "TFRC.R.V normalized RPPA signal", "setting": "[1]", "result": "0.993 and 0.819 and 0.888 and 0.900"}, {"measurement": "TIGAR.R.V normalized RPPA signal", "setting": "[1]", "result": "0.948 and 0.928 and 0.972"}, {"measurement": "TRAP1.M.V normalized RPPA signal", "setting": "[1]", "result": "0.886 and 1.063 and 0.996"}, {"measurement": "TRIM24.R.C normalized RPPA signal", "setting": "[1]", "result": "0.955 and 1.027"}, {"measurement": "TRIM25.R.C normalized RPPA signal", "setting": "[1]", "result": "0.793 and 0.863 and 1.102 and 0.919"}, {"measurement": "TRIP13.R.V normalized RPPA signal", "setting": "[1]", "result": "1.018 and 1.029 and 1.031"}, {"measurement": "Tau.M.C normalized RPPA signal", "setting": "[1]", "result": "1.047 and 1.298 and 0.928"}, {"measurement": "Transglutaminase.M.V normalized RPPA signal", "setting": "[1]", "result": "1.016 and 1.436 and 2.172 and 1.541"}]}
